Assay results reported in patent US11485720B2, “Anti-infective agents” (University of Dundee, priority 2016, dated 2022).
Where “and” joins values, the source holds several entries; their conditions need not be identical. Identical values can stand only once.

Tests used:
[1] = test system: Plasmodium falciparum strain 3D7; assay: Plasmodium falciparum 3D7 in vitro growth inhibition (SYBRgreen I); format: cell-based; conditions: for EC50: Plasmodium falciparum, 3D7, read-out: pEC50 for Pf 3D7 (converted)
Method: Parasite Cultures and Cytotoxicity Assay Methodology for Plasmodium falciparum. […] Growth inhibition of the Plasmodium falciparum cultures was quantified in a 10-point dose response curve with a 1 in 3 dilution series from a top assay concentration of 50 μM. This 384 well plate based fluorescence assay utilises the binding of SYBRgreen I (Thermo Fisher Scientific/Invitrogen cat. no. S7585) to double stranded DNA, which greatly increases the fluorescent signal at 528 nm after excitation at 485 nm. Mefloquine was used as a drug control to monitor the quality of the assay (Z′=0.6 to 0.8, where Z′ is a measure of the discrimination between the positive and negative controls on a screen plate). Dose-response curves were determined from a minimum of 3 independent experiments. Compound bioactivity was expressed as EC50, the effective concentration of compound causing 50% parasite death.

[2] = test system: Trypanosoma cruzi; assay: Trypanosoma cruzi intracellular imaging assay; format: cell-based; conditions: read-out: Trypanosoma cruzi pEC50 (converted)
Text: Assay Method for Measurement of In Vitro Inhibition of Trypanosoma cruzi. […] These experiments were run in accordance with the method of Pena et. al., Scientific Reports 5, Article number: 8771 (2015). Results from these experiments are provided in the Experimental Results hereinafter.

[3] = test system: Cryptosporidium parvum; assay: In vitro Crytosporidium inhibition assay; format: cell-based; conditions: Cryptosporidium parvum; read-out: Cryptosporidium parvum pEC50 (converted)
Text: Assay Method for Measurement of In Vitro Inhibition of Crytosporidium.
These experiments were run in accordance with the method of Besssoff et. al. Antimicrob. Agents Chemother. 2013, 57:1804-1814. Results from these experiments are provided in the Experimental Results hereinafter.

[4] = test system: Hep G2; assay: Hep G2 in-vitro cytotoxicity assay; format: cell-based; conditions: Homo sapiens, HepG2, read-out: Hs HEPG2 pEC50 (converted)
Text: In-vitro cytotoxicity studies can be carried out using Hep G2 (Human hepatocyte carcinoma, HPACC cat. no. 85011430) used as indicators for general mammalian cell toxicity. Hep G2 in-vitro cytotoxicity can be assessed using the assay procedure as described in “Use of a human-derived liver cell line for the detection of cytoprotective, antigenotoxic and cogenotoxic agents”, Volker Mersch-Sundermann, Siegfried Knasmüller, Xin-jiang Wu, Firouz Darroudi, Fekadu Kassie. J. Tox 198 (2004) 329-340) the contents of which are incorporated herein by reference.

[5] = target: T1, Plasmodium falciparum lysyl t-RNA synthetase (Pf-KRS1) (Plasmodium falciparum, UniProt Q8IDJ8); assay: Pf-KRS1 inhibition biochemical assay (Kinase-Glo, ATP depletion); conditions: read-out: Pf-KRS pIC50 (converted)
T1 construct: Pf KRS1-; made in house; host or cells: E. coli BL21 (DE3)
T1 sequence (Q8IDJ8 entry or part of it, looked up, natural form): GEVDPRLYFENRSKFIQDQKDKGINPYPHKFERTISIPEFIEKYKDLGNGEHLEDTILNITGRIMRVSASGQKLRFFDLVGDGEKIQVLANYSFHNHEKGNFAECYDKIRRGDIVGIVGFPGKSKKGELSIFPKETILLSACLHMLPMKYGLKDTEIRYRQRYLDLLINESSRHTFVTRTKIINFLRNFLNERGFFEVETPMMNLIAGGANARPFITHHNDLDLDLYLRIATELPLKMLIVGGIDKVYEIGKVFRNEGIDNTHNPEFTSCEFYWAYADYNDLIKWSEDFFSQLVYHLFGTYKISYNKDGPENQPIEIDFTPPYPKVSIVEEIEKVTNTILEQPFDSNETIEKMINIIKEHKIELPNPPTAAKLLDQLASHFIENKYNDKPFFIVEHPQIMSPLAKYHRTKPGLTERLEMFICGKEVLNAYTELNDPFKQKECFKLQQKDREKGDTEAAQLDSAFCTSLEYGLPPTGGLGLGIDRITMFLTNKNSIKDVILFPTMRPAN
Text: Plasmodium falciparum Lysine tRNA Synthetase (KRS1) Biochemical Assay Methodology.
Lysine tRNA Synthetase (KRS1) is an enzyme which catalyses the esterification of L-Lysine to the appropriate transfer ribonucleic acid (tRNA), to form an aminoacyl-tRNA. Once the tRNA is charged, a ribosome transfers the amino acid from the tRNA onto a growing peptide, according to the genetic code.
The substrates of this reaction are L-lysine, and adenosine triphosphate (ATP), the overall reaction is: amino acid+tRNA+ATP→aminoacyl-tRNA+AMP+PPi
In this overall reaction AMP is adenosine monophosphate and PP; is inorganic pyrophosphate. The reaction progression in a biochemical assay can be tracked by the depletion of one of the substrates, in the case of this invention, ATP. This was done using the proprietary assay kit, Kinase Glo® Assay which is a luminescent kinase assay platform suitable for monitoring kinase activities using up to 10 μm ATP which is commercially available from the Promega Corporation of Madison, Wis., USA. The Kinase-Glo® Assay was performed in a single well of a multiwell plate by adding a volume of Kinase-Glo® Reagent equal to the volume of a completed kinase reaction and measuring luminescence. The resulting luminescent signal is correlated with the amount of ATP present and is inversely correlated with the amount of kinase activity. As such by use of this assay methodology a reduction of the luminescent signal is relative to the reduction in ATP as the reaction progresses. A compound which inhibits the action of KRS will show no drop in the luminescent signal from assay controls.
Assays were performed using both Plasmodium falciparum and human KRS to assess any selectivity of various test compounds.
Test compounds were solubilized in DMSO at a top concentration of 10 mM and serially diluted 1 in 3 to achieve a range of final assay concentrations of 50 μM to 2.5 nM in 10 μl reaction volume.
KRS was diluted to a working concentration of 75 nM in assay buffer (25 mM HEPES, 25 mM KOH, 10 mM MgCl2.6H2O, 50 mM KCl), and the following ‘Master Mix’ prepared in assay buffer: 0.1 mg/ml BSA, 250 μM DTT, 200 μM Spermine, 0.05% NP-40, ATP 3 μM for Pf KRS1 (4 μM for Hs KRS1), 0.4 mg/ml tRNA from Yeast, 60 μM L-Lysine, 0.5 U/ml Pyrophosphatase.
Plates were incubated at room temperature for 5 h for Pf KRS (2.5 hrs for HsKRS), then the assay stopped by the addition of 10 μl of The Kinase-Glo® Reagent Assay was performed in a single well of a multiwell plate by adding a volume of Kinase-Glo® Reagent which is commercially available from the Promega Corporation of Madison, Wis., USA. The plates were incubated in the dark for a further 15 mins before being read for luminescence on a BMG PHERAstar® FSX plate reader which is a multi-mode reader for use in high-throughput screening available from BMG Labtech if Cary, N.C., USA. Data were analysed by calculating the percentage inhibition compared to the maximum and minimum assay controls. Concentration effect curves were fitted using nonlinear regression within ActivityBase and IC50 values were determined using standard protocols.

| EC50 [2] | SMILES | EC50 [1] | EC50 [3] | EC50 [4] | IC50 [5] | pEC50 for Pf 3D7 [1] |
| --- | --- | --- | --- | --- | --- | --- |
| 50.1 nM | Nc1cc(F)cc2c(=O)cc(C(=O)NCC3CCC(F)(F)CC3)oc12 [Example 94, 8-amino-N-[(4,4-difluorocyclohexyl)methyl]-6-fluoro-4-oxo-4H-chromene-2-carboxamide] | 50.1 nM | – | – | – | – |
| – | O=C(NCC1CCCCC1)c1cc(=O)c2ccc(O)cc2o1 [Example 4, N-(cyclohexylmethyl)-7-hydroxy-4-oxo-chromene-2-carboxamide] | 1260 nM | 1580 nM | 50100 nM | 1000 nM | – |
| – | O=C(O)CC1(CNC(=O)c2cc(=O)c3cc(F)ccc3o2)CCCCC1 [Example 57L, 2-(1-((6-fluoro-4-oxo-4H-chromene-2-carboxamido)methyl)cyclohexyl)acetic acid] | 794 nM | 5010 nM | 50100 nM | – | – |
| – | Nc1cc(F)cc2c(=O)cc(C(=O)NCC3(O)CCC(F)(F)CC3)oc12 [Example 93, 8-amino-N-[(4,4-difluoro-1-hydroxy-cyclohexyl)methyl]-6-fluoro-4-oxo-chromene-2-carboxamide] | – | 501 nM | 12600 nM | 50.1 nM and 63.1 nM | – |
| – | O=C(NCC1(O)CCCCC1)c1cc(=O)c2cc(F)cc(F)c2o1 [Example 55, 6,8-difluoro-N-[(1-hydroxycyclohexyl)methyl]-4-oxo-chromene-2-carboxamide] | 398 nM | 501 nM | 50100 nM | 200 nM | – |
| – | O=C(NCC1(O)CCCCC1)c1cc(=O)c2ccccc2o1 [Example 27, N-[(1-hydroxycyclohexyl)methyl]-4-oxo-chromene-2-carboxamide] | 251 nM | 316 nM | 50100 nM | 126 nM | – |
| – | O=C(NCC1CCC(F)(F)CC1)c1cc(=O)c2ccccc2o1 [Example 21, N-[(4,4-difluorocyclohexyl)methyl]-4-oxo-chromene-2-carboxamide] | – | 7940 nM | 50100 nM | – | – |
| – | COc1cc2c(=O)cc(C(=O)NCC3CCCCC3)oc2cc1F [Example 71, N-(cyclohexylmethyl)-7-fluoro-6-methoxy-4-oxo-4H-chromene-2-carboxamide] | 3160 nM | 3980 nM | – | 398 nM | – |
| – | O=C(NCC1(O)CCC(F)(F)CC1)c1cc(=O)c2cc(F)cc(F)c2o1 [Example 56, N-((4,4-difluoro-1-hydroxycyclohexyl)methyl)-6,8-difluoro-4-oxo-4H-chromene-2-carboxamide] | 1580 nM | 7940 nM | – | 316 nM | – |
| – | CS(=O)(=O)Nc1cccc2c(=O)cc(C(=O)NCC3CCCCC3)oc12 [Example 84, N-(cyclohexylmethyl)-8-(methylsulfonamido)-4-oxo-4H-chromene-2-carboxamide] | 316 nM | 631 nM | 50100 nM | 126 nM | – |
| – | O=C(NCCCC1CCC1)c1cc(=O)c2cc(F)cc(O)c2o1 [Example 76G, N-(3-cyclobutylpropyl)-6-fluoro-8-hydroxy-4-oxo-4H-chromene-2-carboxamide] | 1580 nM | 1260 nM | 31600 nM | 126 nM | – |
| – | O=C(NCC1(O)CC2(CCC2)C1)c1cc(=O)c2cc(F)cc(O)c2o1 [Example 76D, 6-fluoro-8-hydroxy-N-((2-hydroxyspiro[3.3]heptan-2-yl)methyl)-4-oxo-4H-chromene-2-carboxamide] | 398 nM | 3980 nM | 50100 nM | 126 nM | – |
| – | O=C(NCC1CCC(F)(F)CC1)c1cc(=O)c2cc(F)cc(O)c2o1 [Example 75, N-((4,4-difluorocyclohexyl)methyl)-6-fluoro-8-hydroxy-4-oxo-4H-chromene-2-carboxamide] | 200 nM | 794 nM | 50100 nM | 79.4 nM | – |
| – | O=C(NCC1(O)CCCCC1)c1cc(=O)c2cc(F)ccc2o1 [Example 41, 6-fluoro-N-[(1-hydroxycyclohexyl)methyl]-4-oxo-chromene-2-carboxamide] | 200 nM | 501 nM | 25100 nM | 100 nM | – |
| – | O=C(NCC1(O)CCC(F)(F)CC1)c1cc(=O)c2cc(F)cc(O)c2o1 [Example 76A, N-((4,4-difluoro-1-hydroxycyclohexyl)methyl)-6-fluoro-8-hydroxy-4-oxo-4H-chromene-2-carboxamide] | 79.4 nM | 3160 nM | 50100 nM | 50.1 nM | – |
| – | O=C(NCC1CCCCC1)c1cc(=O)c2ccc(F)cc2o1 [Example 42, N-(cyclohexylmethyl)-7-fluoro-4-oxo-chromene-2-carboxamide] | 794 nM | 1260 nM | – | 200 nM | – |
| – | O=C(NCC1(O)CCCCC1)c1cc(=O)c2cc(Cl)cc(O)c2o1 [Example 73, 6-Chloro-8-hydroxy-N-((1-hydroxycyclohexyl)methyl)-4-oxo-4H-chromene-2-carboxamide] | – | 39.8 nM | 20000 nM | 50.1 nM | – |
| – | O=C(NCC1CCCC1)c1cc(=O)c2ccccc2o1 [Example 23, N-(cyclopentylmethyl)-4-oxo-chromene-2-carboxamide] | 1580 nM | 2000 nM | – | 398 nM | – |
| – | Cc1c(C(=O)NCC2CCCCC2)oc2ccc(F)cc2c1=O [Example 91, N-(cyclohexylmethyl)-6-fluoro-3-methyl-4-oxo-4H-chromene-2-carboxamide] | 5010 nM | 2510 nM | – | 631 nM | 5.2 |
| – | O=C(NCC1CCCCC1)c1cc(=O)c2cccc(O)c2o1 [Example 67, N-(cyclohexylmethyl)-8-hydroxy-4-oxo-4H-chromene-2-carboxamide] | 63.1 nM | 316 nM | – | 63.1 nM | – |
| – | O=C(NCC1(CO)CCCCC1)c1cc(=O)c2cc(F)ccc2o1 [Example 40, 6-fluoro-N-[[1-(hydroxymethyl)cyclohexyl]methyl]-4-oxo-chromene-2-carboxamide] | 794 nM | 1580 nM | 50100 nM | 251 nM | – |
| – | O=C(NCC1CCC(F)(F)CC1)c1cc(=O)c2ccc(F)c(O)c2o1 [Example 79, N-((4,4-difluorocyclohexyl)methyl)-7-fluoro-8-hydroxy-4-oxo-4H-chromene-2-carboxamide] | – | 794 nM | 50100 nM | 200 nM | – |
